According to PubChem BioAssay (NCI):
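Test compounds were applied to cells in 96-well plates for 48 hours at 5 doses. The concentration for 50% growth inhibition is given as GI50. TGI is the concentration that stops growth completely.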

Tests used:
Assay in all cases: inhibition of tumour cell growth, NCI panel, 48 h
[1] = test system: HCT-15 colon
[2] = test system: OVCAR-3 ovarian
[3] = test system: NCI-H23 lung
[4] = test system: HCT-116 colon
[5] = test system: OVCAR-4 ovarian
[6] = test system: CAKI-1 renal
[7] = test system: SR leukemia
[8] = test system: HL-60(TB) leukemia
[9] = test system: HS 578T breast
[10] = test system: MDA-MB-435
[11] = test system: UACC-257 melanoma
[12] = test system: DU-145 prostate

SMILES	TGI [1] [µM]	TGI [2] [µM]	TGI [3] [µM]	TGI [4] [µM]	TGI [5] [µM]	TGI [6] [µM]	TGI [7] [µM]	TGI [8] [µM]	TGI [9] [nM]	TGI [10] [µM]	TGI [11] [µM]	TGI [12] [µM]	GI50 [1] [µM]	GI50 [10] [µM]	GI50 [3] [µM]	GI50 [4] [µM]	GI50 [12] [µM]	GI50 [5] [µM]	GI50 [6] [µM]	GI50 [7] [µM]
CCOC(=O)c1cc2c(OCc3ccccc3)c(OC)cc3c2c(n1)N(c1ccc(OC)cc1)C(C)C3 (centres undefined)	> 50	> 50	> 50	> 50	> 50	> 50	> 50	> 50												
CCCCCCCCCC(=O)N[C@@H](c1ccco1)[C@@H](O)C(=O)O[C@H]1C[C@@]2(O)[C@@H](OC(=O)c3ccccc3)[C@@H]3[C@]4(OC(C)=O)CO[C@@H]4C[C@H](O)[C@@]3(C)C(=O)[C@H](OC(C)=O)C(=C1C)C2(C)C	8.73	3.48	11.4	1.13	> 24.7	> 38.9	10	0.0292	85.7	0.0345	11.7									
Cc1ccc(S(=O)(=O)NC(=O)NC(CCCCN=C(N)N)C(=O)O)cc1 (centres undefined)	> 100		> 100	> 100	> 100		> 100	> 100	> 100000		> 100	> 100								
COC(=O)CC(C(C(=O)OCc1ccccc1)C(C)O)N1C(=O)OC(c2ccccc2)C1c1ccccc1 (centres undefined)	> 100	> 100	> 100	> 100	> 100		> 100	> 100			> 100									
COc1cc(C2C(Cl)C(=O)N2NC(=O)c2ccc(NC(C)=O)cc2)ccc1O (centres undefined)	> 100	> 100	> 100	> 100	> 100	> 100		> 100			> 100									
Cc1ccc(-n2cc(-c3ccc(Cl)cc3)c3c(NN)ncnc32)cc1	26.1	12.8	12.5	9.1	19.2	8.73	9.28	4.99		29.4	16.1	12.8								
Cc1cn(C2CC(CCCO)C(CO)O2)c(=O)[nH]c1=O (centres undefined)	> 100	> 100	> 100	> 100	> 100	> 100	> 100	> 100			> 100									
Cc1ccc(N(O)C(C)(C)C)cc1	> 100	> 100	> 100	> 100	> 100	> 100		> 100			> 100									
O=S(=O)(c1ccc(-c2nnc(-c3ccc(F)cc3)o2)cc1)c1ccc(-c2nnc(-c3ccc(F)cc3)o2)cc1	> 100	> 100	> 100	> 100	> 100	> 100		> 100		> 100	> 100	> 100								
COc1cccc(/C(Cl)=C(\C=O)c2cccc(OC)c2)c1	20.1	29.1	22.7	15	55.3	70	39.5	12.5			42.4									
O=NN(CCF)C(=O)NC1CC2CCC1C2 (centres undefined)	> 100	> 100	> 100	> 100	> 100	> 100		> 100			> 100									
CCC(COC(=O)CC[C@@H](NC(=O)C(C)NC(=O)C(C)OC1C(O)C(CO)OC(OCc2ccccc2)C1NC(C)=O)C(N)=O)NC1c2ccccc2Nc2cccc([N+](=O)[O-])c21 (some centres undefined)	> 100	> 100	> 100	> 100	> 100	> 100	> 100	> 100			> 100									
CO[C@H]1O[C@@H]2CO[C@@H](c3ccccc3)O[C@H]2[C@@H]2C/C=C\CCC[C@@]12O	76.5	30.5	52.7	30.9	> 100	> 100	49.4	51.2		52.9	43.2	51.8								
CCCc1c(C(=O)OCC)[nH]c(-c2ccc(-c3[nH]c(C(=O)OCC)c(CCC)c3C(=O)OCC)s2)c1C(=O)OCC	> 100	> 100	> 100	> 100	> 100	> 100	> 100	> 100			> 100									
CCN(CC)CCCNC(=O)c1cc2cc(NC(=O)c3cc4cc([N+](=O)[O-])ccc4[nH]3)ccc2[nH]1	> 100	75.8	> 100	> 100	> 100	> 100	> 100			> 100	76.9	> 100								
CN1CN(c2ccccc2)C2(CCN(CCCCCCF)CC2)C1=O	> 100	> 100	> 100	> 100		> 100	> 100	> 100		> 100	> 100	> 100								

SMILES	TGI [1] [µM]	TGI [2] [µM]	TGI [3] [µM]	TGI [4] [µM]	TGI [5] [µM]	TGI [6] [µM]	TGI [7] [µM]	TGI [8] [µM]	TGI [9] [nM]	TGI [10] [µM]	TGI [11] [µM]	TGI [12] [µM]	GI50 [1] [µM]	GI50 [10] [µM]	GI50 [3] [µM]	GI50 [4] [µM]	GI50 [12] [µM]	GI50 [5] [µM]	GI50 [6] [µM]	GI50 [7] [µM]
CC(=O)NNc1nc(C)c(C(=O)NNC(=O)C(=O)Nc2cccc(C(C)=O)c2)s1	52.5		35.2	> 100	64.3	31.6	45.8	57.9			49.9									
C[S+](C)CC1OC(n2cnc3c(N)ncnc32)C(O)C1O (centres undefined)	> 225	> 225	> 225	> 225	> 225	> 225		> 225			> 225									
C=C(C)C1CC/C(C)=C/CC[C@]2(C)O[C@@H]2CCC2=CC1OC2=O (some centres undefined)	> 100		> 100	> 100	> 100	49.1	51.5			> 100		> 100	42.3	49.4	36.8	27.6	18.4	> 100	19	19
CN(C(=O)c1ccc2c(c1)sc1c(=O)n(C)c3ccccc3c12)c1ccccc1	> 100	> 100	> 100	> 100	> 100	> 100	> 100	> 100		> 100	> 100	> 100								
COc1ccc2c(c1)OCCc1cn[nH]c1-2	> 100	> 100	> 100	> 100	> 100			36			> 100									
CN(C)CCNC(=O)c1cccc2cc3cc(O)ccc3nc12	6.53	3.61	3.24	5.73	6.58			2.37			2.94									
COC(=O)[C@@](C)(COC(=O)C(C)(C)C)NC(=O)OC(C)(C)C	> 100		> 100	> 100	> 100	> 100	> 100			> 100	> 100	> 100								
[O-][n+]1c(CN2CCCCC2)nc2cccc3c2c1-c1ccccc1-3	> 100	46.5	48.5	38.7	77.4	81.7	> 100	> 100		68	39.4	41.5								
CC(C)OP(=O)(OC(C)C)C1=NN(c2ccc([N+](=O)[O-])cc2)C(P(=O)(OC(C)C)OC(C)C)=NN1c1ccc([N+](=O)[O-])cc1	> 100	> 100	> 100	> 100	> 100	> 100	> 100	16.4												
O=c1c2ccccc2nc(-c2ccccc2)n1NC(=S)Nc1ccc(Cl)cc1	> 100		> 100	> 100	> 100	> 100	> 100	> 100			> 100									
O=C1Nc2cc([N+](=O)[O-])c(Br)cc2C1=O	37.1	32.1	31.9		30.5	47.5	37.4				35.1									
CCOC(=O)C(C)Sc1nnc(COc2ccccc2OC)n1-c1ccccc1 (centres undefined)	30.6	> 100	> 100	> 100	> 100	> 100		> 100			> 100									
CC(C)(C)C(=O)OCC1OC(N=[N+]=[N-])C(OC(=O)C(C)(C)C)C(OC(=O)C(C)(C)C)C1OC(=O)C(C)(C)C (centres undefined)	> 100	> 100	> 100	> 100	> 100	> 100	> 100	> 100			> 100									
Nc1cccc(S(=O)(=O)Nc2nnc(S(N)(=O)=O)s2)c1	> 100	> 100	> 100	> 100	> 100	> 100	> 100	> 100		> 100		> 100								
Cc1ccc(S(=O)(=O)[C@@H](Cl)[C@H]2N=C(Cl)NN=C2c2ccccc2)cc1	54.5	31.3	63.1	> 100	36.6	> 100	> 100			51.4	48.1	70.9								
COc1ccc2nc3c(c(NCCCN(C)C)c2c1)CCCC3	33.9	51.4	31.4	17.2	18.5	27.9	5.77	29.6			31.3									
